Columns and labels:
[1] = target: GSPT1 (Homo sapiens, UniProt P15170+Q96SW2); assay: HiBiT degradation assay, GSPT1, Procedure A; assay type: cell-based; set-up: HiBit-GSPT1 KI HEK293(LgBit) Cells; host or cells: HEK293(LgBit) knock-in cells; conditions: six hours incubation
Procedure, shortened: (§1)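 Cells in DMEM + 10% FBS were treated with compound in a ten-point dose response from 10 μM to 0.005 μM (0.1% DMSO) for six hours at 37° C. Lysis with Nano-Glo HiBiT detection reagent followed, with luminescence read. DC50 and Ymin came from a 4-parameter fit.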

[2] = target: T1, CK1α (Homo sapiens, UniProt P48729+Q96SW2); assay: HiBiT degradation assay, CK1α, Procedure A; assay type: cell-based; conditions: six hours incubation
T1 construct: CSNK1A1-HiBit KI HEK293(LgBit) Cells; host or cells: HEK293(LgBit) knock-in cells
Procedure, shortened: as §1

Chain of GSPT1 (P15170 whole entry): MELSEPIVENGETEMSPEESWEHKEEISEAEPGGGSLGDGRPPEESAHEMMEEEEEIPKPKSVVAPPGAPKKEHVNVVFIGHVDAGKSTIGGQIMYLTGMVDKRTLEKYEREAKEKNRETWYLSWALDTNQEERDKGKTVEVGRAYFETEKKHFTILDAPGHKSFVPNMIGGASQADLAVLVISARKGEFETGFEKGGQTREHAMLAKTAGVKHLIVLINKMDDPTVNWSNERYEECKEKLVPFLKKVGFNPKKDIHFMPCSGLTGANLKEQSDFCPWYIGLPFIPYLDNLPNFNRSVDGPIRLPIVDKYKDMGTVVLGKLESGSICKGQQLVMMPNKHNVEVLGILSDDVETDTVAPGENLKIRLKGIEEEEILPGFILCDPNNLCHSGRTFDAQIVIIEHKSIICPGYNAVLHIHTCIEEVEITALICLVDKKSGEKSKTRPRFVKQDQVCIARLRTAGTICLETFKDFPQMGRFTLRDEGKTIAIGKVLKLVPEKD
Chain of GSPT1 (Q96SW2 whole entry): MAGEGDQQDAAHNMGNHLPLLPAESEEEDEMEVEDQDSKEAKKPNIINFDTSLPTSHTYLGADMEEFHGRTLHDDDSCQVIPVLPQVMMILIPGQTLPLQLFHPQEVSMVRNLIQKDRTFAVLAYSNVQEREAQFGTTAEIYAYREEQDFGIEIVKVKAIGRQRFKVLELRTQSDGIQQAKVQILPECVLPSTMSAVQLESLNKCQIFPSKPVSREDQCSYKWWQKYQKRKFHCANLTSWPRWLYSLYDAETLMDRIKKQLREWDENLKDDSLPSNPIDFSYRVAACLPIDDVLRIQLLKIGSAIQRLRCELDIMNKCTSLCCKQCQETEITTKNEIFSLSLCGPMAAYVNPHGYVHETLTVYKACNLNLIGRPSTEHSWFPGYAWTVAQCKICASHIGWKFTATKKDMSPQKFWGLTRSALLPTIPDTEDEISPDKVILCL
Chain of GSPT1 (Q16531 whole entry partner): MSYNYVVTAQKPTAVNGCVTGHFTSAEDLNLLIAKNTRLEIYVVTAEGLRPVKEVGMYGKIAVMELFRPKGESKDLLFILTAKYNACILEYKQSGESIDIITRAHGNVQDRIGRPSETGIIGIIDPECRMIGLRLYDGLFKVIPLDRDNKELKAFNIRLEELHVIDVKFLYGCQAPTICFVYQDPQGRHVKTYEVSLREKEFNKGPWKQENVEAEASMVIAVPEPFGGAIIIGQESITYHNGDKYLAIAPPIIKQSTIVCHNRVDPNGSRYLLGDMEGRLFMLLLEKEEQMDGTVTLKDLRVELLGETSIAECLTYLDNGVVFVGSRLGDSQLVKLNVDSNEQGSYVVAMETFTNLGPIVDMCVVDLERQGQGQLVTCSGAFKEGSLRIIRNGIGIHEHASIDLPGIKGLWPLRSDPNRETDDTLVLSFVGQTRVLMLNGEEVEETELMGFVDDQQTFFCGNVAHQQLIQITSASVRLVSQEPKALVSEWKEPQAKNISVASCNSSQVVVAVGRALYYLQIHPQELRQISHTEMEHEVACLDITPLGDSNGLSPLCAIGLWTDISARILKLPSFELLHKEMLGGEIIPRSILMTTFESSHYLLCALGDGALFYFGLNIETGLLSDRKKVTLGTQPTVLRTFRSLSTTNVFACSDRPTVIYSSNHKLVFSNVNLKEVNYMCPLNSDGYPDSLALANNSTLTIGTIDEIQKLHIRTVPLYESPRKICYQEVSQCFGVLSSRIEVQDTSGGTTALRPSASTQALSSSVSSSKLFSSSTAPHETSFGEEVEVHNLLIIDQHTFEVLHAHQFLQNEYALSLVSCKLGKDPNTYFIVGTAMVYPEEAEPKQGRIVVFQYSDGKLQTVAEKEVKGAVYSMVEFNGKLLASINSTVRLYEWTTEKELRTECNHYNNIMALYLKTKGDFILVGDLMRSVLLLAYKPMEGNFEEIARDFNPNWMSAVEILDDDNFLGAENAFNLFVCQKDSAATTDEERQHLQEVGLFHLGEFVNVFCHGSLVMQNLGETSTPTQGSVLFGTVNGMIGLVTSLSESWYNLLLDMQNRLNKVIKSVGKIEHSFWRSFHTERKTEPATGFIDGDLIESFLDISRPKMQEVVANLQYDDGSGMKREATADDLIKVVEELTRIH
T1 sequence (P48729 whole entry): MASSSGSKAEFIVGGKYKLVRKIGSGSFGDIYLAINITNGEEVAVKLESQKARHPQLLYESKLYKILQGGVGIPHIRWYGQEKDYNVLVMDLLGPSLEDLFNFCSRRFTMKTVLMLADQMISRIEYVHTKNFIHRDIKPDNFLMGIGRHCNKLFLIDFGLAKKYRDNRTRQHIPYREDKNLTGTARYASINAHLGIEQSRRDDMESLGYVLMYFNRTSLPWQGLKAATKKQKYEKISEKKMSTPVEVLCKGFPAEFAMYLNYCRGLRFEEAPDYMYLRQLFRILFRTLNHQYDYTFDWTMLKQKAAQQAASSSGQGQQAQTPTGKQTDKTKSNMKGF
T1 sequence (Q96SW2 whole entry): as the sequence (Q96SW2 whole entry) above
T1 sequence (Q16531 whole entry partner): as the sequence (Q16531 whole entry partner) above

Compound	DC50 [1] [nM]	GSPT1 Ymin [1]	CK1α Ymin [2]	DC50 [2] [nM]
CN(C)C(=O)c1cccc(-c2c(-c3ccc4c(c3)CN(C3CCC(=O)NC3=O)C4=O)cnn2C)c1 (stereo not shown) [Example 140]	< 25	E (E = >25-75% remaining)	E (E = >25-75% remaining)	≥ 25
COCc1ccc(-c2c(-c3ccc4c(c3)CN(C3CCC(=O)NC3=O)C4=O)cnn2C)cc1 (stereo not shown) [Example 141]	≥ 25	F (F = >75-100% remaining)	E (E = >25-75% remaining)	< 25
Cn1ncc(-c2ccc3c(c2)CN(C2CCC(=O)NC2=O)C3=O)c1-c1ccc(O)cc1 (stereo not shown) [Example 142]	≥ 25	F (F = >75-100% remaining)	D (D = >10- 25% remaining)	< 25
COc1ccc(-c2c(-c3ccc4c(c3)CN(C3CCC(=O)NC3=O)C4=O)cnn2C)c(C)c1 (stereo not shown) [Example 143]	≥ 25	F (F = >75-100% remaining)	D (D = >10- 25% remaining)	< 25
Cn1ncc(-c2ccc3c(c2)CN(C2CCC(=O)NC2=O)C3=O)c1-c1ccc(-c2ccccc2)cc1 (stereo not shown) [Example 144]	≥ 25	F (F = >75-100% remaining)	E (E = >25-75% remaining)	< 25
Cn1ncc(-c2ccc3c(c2)CN(C2CCC(=O)NC2=O)C3=O)c1-c1ccccc1-c1ccccc1 (stereo not shown) [Example 145]	< 25	F (F = >75-100% remaining)	C (C = 0-10% remaining)	< 25
COc1ccc(-c2c(-c3ccc4c(c3)CN(C3CCC(=O)NC3=O)C4=O)cnn2C)cc1Cl (stereo not shown) [Example 146]	≥ 25	E (E = >25-75% remaining)	D (D = >10- 25% remaining)	< 25
Cn1ncc(-c2ccc3c(c2)CN(C2CCC(=O)NC2=O)C3=O)c1-c1cccc(N)c1 (stereo not shown) [Example 147]	≥ 25	F (F = >75-100% remaining)	C (C = 0-10% remaining)	< 25
Cn1ncc(-c2ccc3c(c2)CN(C2CCC(=O)NC2=O)C3=O)c1-c1ccc(Cl)cc1Cl (stereo not shown) [Example 148]	< 25	F (F = >75-100% remaining)	E (E = >25-75% remaining)	< 25
COc1ccc2cc(-c3c(-c4ccc5c(c4)CN(C4CCC(=O)NC4=O)C5=O)cnn3C)ccc2c1 (stereo not shown) [Example 149]	< 25	F (F = >75-100% remaining)	D (D = >10- 25% remaining)	< 25
Cn1ncc(-c2ccc3c(c2)CN(C2CCC(=O)NC2=O)C3=O)c1-c1ccc(-n2cccn2)cc1 (stereo not shown) [Example 150]	≥ 25	F (F = >75-100% remaining)	D (D = >10- 25% remaining)	< 25
Cc1ccc(-c2c(-c3ccc4c(c3)CN(C3CCC(=O)NC3=O)C4=O)cnn2C)cc1F (stereo not shown) [Example 151]	≥ 25	F (F = >75-100% remaining)	E (E = >25-75% remaining)	< 25
Cn1ncc(-c2ccc3c(c2)CN(C2CCC(=O)NC2=O)C3=O)c1-c1ccccc1C#N (stereo not shown) [Example 152]	≥ 25	F (F = >75-100% remaining)	E (E = >25-75% remaining)	≥ 25
Cn1ncc(-c2ccc3c(c2)CN(C2CCC(=O)NC2=O)C3=O)c1-c1ccc(-c2ccncc2)cc1 (stereo not shown) [Example 153]	≥ 25	F (F = >75-100% remaining)	D (D = >10- 25% remaining)	< 25
CN1CCN(Cc2ccc(-c3c(-c4ccc5c(c4)CN(C4CCC(=O)NC4=O)C5=O)cnn3C)cc2)CC1 (stereo not shown) [Example 154]	≥ 25	F (F = >75-100% remaining)	E (E = >25-75% remaining)	≥ 25
Cn1ncc(-c2ccc3c(c2)CN(C2CCC(=O)NC2=O)C3=O)c1-c1ccc2c(c1)OCC2 (stereo not shown) [Example 155]	≥ 25	F (F = >75-100% remaining)	E (E = >25-75% remaining)	< 25
Cn1ncc(-c2ccc3c(c2)CN(C2CCC(=O)NC2=O)C3=O)c1-c1ccc(CO)cc1 (stereo not shown) [Example 156]	≥ 25	F (F = >75-100% remaining)	D (D = >10- 25% remaining)	≥ 25
Cc1ccc(-c2c(-c3ccc4c(c3)CN(C3CCC(=O)NC3=O)C4=O)cnn2C)cc1CO (stereo not shown) [Example 157]	≥ 25	F (F = >75-100% remaining)	E (E = >25-75% remaining)	≥ 25
Cn1ncc(-c2ccc3c(c2)CN(C2CCC(=O)NC2=O)C3=O)c1-c1cccc(CN2CCCC2)c1 (stereo not shown) [Example 158]	≥ 25	F (F = >75-100% remaining)	E (E = >25-75% remaining)	≥ 25
